In ChEMBL document CHEMBL3885881, “DrugMatrix”:

Organism: Rattus norvegicus
Assay: DrugMatrix - Regimen: Daily Repeat
Assay type: toxicity, organism-based, Sprague-Dawley
Parameters: regimen Daily Repeat, gender Male, age 6-8 weeks
Conditions: in vivo, po, route oral GAVAGE, […]; for ABSOLUTE BASOPHIL / ABSOLUTE EOSINOPHIL / ABSOLUTE LYMPHOCYTE / ABSOLUTE MONOCYTE / ABSOLUTE SEGMENTED NEUTROPHIL / BASOPHIL / EOSINOPHIL / ERYTHROCYTE COUNT / HEMATOCRIT / HEMOGLOBIN / LEUKOCYTE COUNT / LYMPHOCYTE / MEAN CORPUSCULAR HEMOGLOBIN / MEAN CORPUSCULAR HEMOGLOBIN CONCENTRATION / MEAN CORPUSCULAR VOLUME / MONOCYTE / NEUTROPHIL / NUCLEATED RED BLOOD CELLS / PLATELET COUNT: tissue Blood; for ALANINE AMINOTRANSFERASE / ALBUMIN / ALKALINE PHOSPHATASE / ASPARTATE AMINOTRANSFERASE / BLOOD UREA NITROGEN / CARBON DIOXIDE / CHLORIDE / CHOLESTEROL / CREATININE / GLUCOSE / LACTATE DEHYDROGENASE / LIPASE / PHOSPHORUS / POTASSIUM / SODIUM / TOTAL BILIRUBIN / TOTAL PROTEIN / URIC ACID: tissue Plasma
[1] = 250 mg/kg, 120 h, dose level Low, time 5 day
[2] = 500 mg/kg, 72 h, dose level High, time 3 day
[3] = 500 mg/kg, 120 h, dose level High, time 5 day

SMILES: CC(C)Cc1ccc(CC(=O)O)cc1 [IBUFENAC]
- ABSOLUTE BASOPHIL [1]: 0 CELLS/uL
- ABSOLUTE EOSINOPHIL [1]: 236.67 CELLS/uL
- ABSOLUTE LYMPHOCYTE [1]: 15018.67 CELLS/uL
- ABSOLUTE MONOCYTE [1]: 455.33 CELLS/uL
- ABSOLUTE SEGMENTED NEUTROPHIL [1]: 1489.33 CELLS/uL
- BASOPHIL [1]: 0%
- EOSINOPHIL [1]: 1.33%
- ERYTHROCYTE COUNT [1]: 5.48 x10E6/uL
- HEMATOCRIT [1]: 33.63%
- HEMOGLOBIN [1]: 12.33 G/DL
- LEUKOCYTE COUNT [1]: 17.2 x10E3/uL
- LYMPHOCYTE [1]: 87.33%
- MEAN CORPUSCULAR HEMOGLOBIN [1]: 22.5 pg
- MEAN CORPUSCULAR HEMOGLOBIN CONCENTRATION [1]: 36.67 G/DL
- MEAN CORPUSCULAR VOLUME [1]: 61.4 fL
- MONOCYTE [1]: 2.67%
- NEUTROPHIL [1]: 8.67%
- NUCLEATED RED BLOOD CELLS [1]: 0 /100WBC
- PLATELET COUNT [1]: 1124.33 x10E3/uL
- ALANINE AMINOTRANSFERASE [1]: 50 u/L
- ALBUMIN [1]: 4.2 G/DL
- ALKALINE PHOSPHATASE [1]: 391.33 u/L
- ASPARTATE AMINOTRANSFERASE [1]: 81 u/L
- BLOOD UREA NITROGEN [1]: 16 mg/dL
- CARBON DIOXIDE [1]: 28.33 mmol/L
- CHLORIDE [1]: 100.33 MEQ/L
- CHOLESTEROL [1]: 53.33 mg/dL
- CREATININE [1]: 0.16 mg/dL
- GLUCOSE [1]: 167.33 mg/dL
- LACTATE DEHYDROGENASE [1]: 230 u/L
- LIPASE [1]: 9 u/L
- PHOSPHORUS [1]: 12.77 mg/dL
- POTASSIUM [1]: 6.45 MEQ/L
- SODIUM [1]: 142.9 MEQ/L
- TOTAL BILIRUBIN [1]: 0.13 mg/dL
- TOTAL PROTEIN [1]: 6 G/DL
- URIC ACID [1]: 1.5 mg/dL
- ABSOLUTE BASOPHIL [2]: 0 CELLS/uL
- ABSOLUTE EOSINOPHIL [2]: 218.33 CELLS/uL
- ABSOLUTE LYMPHOCYTE [2]: 13655.67 CELLS/uL
- ABSOLUTE MONOCYTE [2]: 429.67 CELLS/uL
- ABSOLUTE SEGMENTED NEUTROPHIL [2]: 2263 CELLS/uL
- BASOPHIL [2]: 0%
- EOSINOPHIL [2]: 1.33%
- ERYTHROCYTE COUNT [2]: 5.57 x10E6/uL
- HEMATOCRIT [2]: 35.13%
- HEMOGLOBIN [2]: 12.77 G/DL
- LEUKOCYTE COUNT [2]: 16.57 x10E3/uL
- LYMPHOCYTE [2]: 82.67%
- MEAN CORPUSCULAR HEMOGLOBIN [2]: 22.97 pg
- MEAN CORPUSCULAR HEMOGLOBIN CONCENTRATION [2]: 36.33 G/DL
- MEAN CORPUSCULAR VOLUME [2]: 63.13 fL
- MONOCYTE [2]: 2.67%
- NEUTROPHIL [2]: 13.33%
- NUCLEATED RED BLOOD CELLS [2]: 0 /100WBC
- PLATELET COUNT [2]: 1113.33 x10E3/uL
- ALANINE AMINOTRANSFERASE [2]: 92.33 u/L
- ALBUMIN [2]: 4.4 G/DL
- ALKALINE PHOSPHATASE [2]: 526.33 u/L
- ASPARTATE AMINOTRANSFERASE [2]: 107.33 u/L
- BLOOD UREA NITROGEN [2]: 14 mg/dL
- CARBON DIOXIDE [2]: 27.33 mmol/L
- CHLORIDE [2]: 103.67 MEQ/L
- CHOLESTEROL [2]: 57 mg/dL
- CREATININE [2]: 0.24 mg/dL
- GLUCOSE [2]: 142.67 mg/dL
- LACTATE DEHYDROGENASE [2]: 159 u/L
- LIPASE [2]: 9.67 u/L
- PHOSPHORUS [2]: 12.2 mg/dL
- POTASSIUM [2]: 7.03 MEQ/L
- SODIUM [2]: 148.07 MEQ/L
- TOTAL BILIRUBIN [2]: 0.2 mg/dL
- TOTAL PROTEIN [2]: 5.93 G/DL
- URIC ACID [2]: 1.43 mg/dL
- ABSOLUTE BASOPHIL [3]: 0 CELLS/uL
- ABSOLUTE EOSINOPHIL [3]: 195.6 CELLS/uL
- ABSOLUTE LYMPHOCYTE [3]: 15442.4 CELLS/uL
- ABSOLUTE MONOCYTE [3]: 503.4 CELLS/uL
- ABSOLUTE SEGMENTED NEUTROPHIL [3]: 1838.6 CELLS/uL
- BASOPHIL [3]: 0%
- EOSINOPHIL [3]: 1%
- ERYTHROCYTE COUNT [3]: 5.64 x10E6/uL
- HEMATOCRIT [3]: 33.38%
- HEMOGLOBIN [3]: 12.04 G/DL
- LEUKOCYTE COUNT [3]: 17.98 x10E3/uL
- LYMPHOCYTE [3]: 86.6%
- MEAN CORPUSCULAR HEMOGLOBIN [3]: 21.36 pg
- MEAN CORPUSCULAR HEMOGLOBIN CONCENTRATION [3]: 36.1 G/DL
- MEAN CORPUSCULAR VOLUME [3]: 59.2 fL
- MONOCYTE [3]: 2.8%
- NEUTROPHIL [3]: 9.6%
- NUCLEATED RED BLOOD CELLS [3]: 0 /100WBC
- PLATELET COUNT [3]: 1278.6 x10E3/uL
- ALANINE AMINOTRANSFERASE [3]: 66 u/L
- ALBUMIN [3]: 4.06 G/DL
- ALKALINE PHOSPHATASE [3]: 384.8 u/L
- ASPARTATE AMINOTRANSFERASE [3]: 92.4 u/L
- BLOOD UREA NITROGEN [3]: 12.8 mg/dL
- CARBON DIOXIDE [3]: 25.8 mmol/L
- CHLORIDE [3]: 102.2 MEQ/L
- CHOLESTEROL [3]: 54.2 mg/dL
- CREATININE [3]: 0.16 mg/dL
- GLUCOSE [3]: 152.8 mg/dL
- LACTATE DEHYDROGENASE [3]: 132.4 u/L
- LIPASE [3]: 9 u/L
- PHOSPHORUS [3]: 12.02 mg/dL
- POTASSIUM [3]: 6.28 MEQ/L
- SODIUM [3]: 142.86 MEQ/L
- TOTAL BILIRUBIN [3]: 0.14 mg/dL
- TOTAL PROTEIN [3]: 5.54 G/DL
- URIC ACID [3]: 1.78 mg/dL
